Measurements reported in US12178837B2, “Composition for skin-whitening or preventing or improving skin wrinkles comprising green tea extract which has modified amounts of ingredients” (AMOREPACIFIC CORPORATION, priority 2019, dated 2024).

Test system: MMP-1 (matrix metalloproteinase-1)
Assay: MMP-1 inhibition activity: ELISA of MMP-1 produced by aged human dermal fibroblasts
Assay type: cell-based
Settings: EGCG + GCG total 3 μg/ml at the given weight ratio
Protocol: The evaluation on MMP-1 inhibition activity was conducted in order to verify the effects of the green tea extracts of Samples 1 and 2 of Example 1 in inhibiting the production of MMP-1, which is skin tissue breakdown enzyme, in human skin fibroblast of aged human skin and in inhibiting the production of MMP-1 according to the weight ratio of EGCG and GCG, and the amount of GCG. To be specific, the evaluation was conducted through the following steps.
Normal human dermal fibroblast (NHDF; Lonza, Switzerland) was cultured in a DMEM medium (Dulbecco's modified Eagle's Medium, Gibco 1210-0038) comprising 10% of fetal bovine serum, and the culturing was all performed in a 37° C., 5% CO2 culture medium. Cells that had 6-9 sub-culture frequencies were used as young cells, and aged dermal fibroblasts were obtained by sub-culturing 37 times in such a manner that the number of cells was calculated for every sub-culture and then ⅕ of the total number of cells were newly cultured. The aged dermal fibroblasts were treated with EGCG and GCG depending on the ratio of EGCG:GCG and the concentration of GCG, or treated with Sample 1 or Sample 2.
In order to verify the amount of MMP-1 produced, the enzyme-linked immunosorbent assay (ELISA) method was used (Amersham, USA). The culture medium of the cells treated with the samples at the step 1-1 was collected and the supernatant was isolated by centrifuging at 1000×g, and then the culture medium was put into a 96-well plate coated with an MMP-1 antibody, and then a secondary antibody (horse reddish peroxidase, HRP) was reacted at room temperature for 1 hour, and washed with 100 μL PBS. The amount of MMP-1 produced was confirmed by measuring absorbance at a 490 nm wavelength after reaction and confirming its degree of color formation using a TMB substrate solution (Pierce, USA), and the MMP-1 inhibition activity (%) was calculated using the following equation.
MMP-1 inhibition activity (%)=(O.D. of the group treated with the sample at 490 nm/O.D. of the group not treated with sample at 490 nm)×100

Row | Molecule | MMP-1 inhibition activity (%) Processed after 24 hours [%] | MMP-1 inhibition activity (%) Processed immediately [%]
1 | (−)-epigallocatechin gallate [EGCG] | 6 ± 1.0 | 56 ± 9.7
2 | O=C(O[C@@H]1Cc2c(O)cc(O)cc2O[C@H]1c1cc(O)c(O)c(O)c1)c1cc(O)c(O)c(O)c1 [GCG, (−)-gallocatechin gallate] | 10 ± 1.0 | 55 ± 9.2
